Consider one molecule from patent US11673891B2, “Imidazopyrimidine compounds and uses thereof” (Dana-Farber Cancer Institute, Inc., priority 2017, dated 2023).

This experiment concerns human adult PBMCs. The experiment is described as follows: TNF production by ELISA after stimulation of human adult PBMCs. The note with it: 33 μM, 18 hours. In kind it is cell-based. On the procedure:
Table 1. Activity of Exemplary Imidazopyrimidine Compounds on Stimulating TNF Production in PBMCs as Compared to Compound R848 Table 1 provides the activity of exemplary compounds on stimulating TNF production in PBMCs as compared to the benchmark compound R848. Specifically, TNF production was measured by ELISA after stimulation of adult PBMCs with compound 037 analog family or the compound R848 at 33 μM for 18 hours. Analogs are ranked top to bottom by median percentage TNF production (TNF %) as compared to R848 (N=3-5). The compounds have been classified in the following categories according to TNF %: high activity—class A: TNF %>15%; medium activity—class B: 1%<TNF %≤15%; low activity—class C: TNF %≤1%.
ELISAs and Multiplex-Analyte Assays. Supernatants derived from human PBMCs and DC stimulations were assayed by ELISA for TNF (ThermoFisher Scientific; Waltham, Mass., USA). Cytokine and chemokine expression profiles (e.g., IFNγ, IL-9, IL-10, IL-12 (p70), IL-13, IL-1β, IL-23, IL-27, IL-28A, IL-33, IL-6, MIP-3α/CCL20, and TNF) in cell culture supernatants were measured using a customized Milliplex® Human Th17 Magnetic Bead Panel according to the manufacturer's instructions (Millipore, Chicago, Ill., USA). Assays were read and analyzed on the Luminex® 100/200™ System and xPOTENT® software (Luminex, Austin, Tex.). A minimum threshold was set at the minimum detectable concentration for each individual assay, defined as three standard deviations above the mean background.
PBMCs were isolated from blood using a Ficoll density gradient. PBMCs either used fresh or were stored at 5×10^7 cells per vial in 1 mL RPMI containing 20% autologous plasma and 10% DMSO at −80° C. until use. Stimulation plates were prepared by transferring 0.66 μl of DMSO-dissolved compounds (10 mM) to each well of a round bottom 96-well plate. PBMCs isolated from human adult donors were resuspended at a concentration of 10^5 cells/200 μl of RPMI supplemented with 10% of platelet-poor plasma. 200 μl of the cell suspension were transferred to each well resulting in a final compound concentration of […]. After about 18 hours of incubation (37° C., 5% CO2), plates were spun down (500×g, room temperature, 5 minutes) and supernatants were harvested for further analysis.
In general terms: An ELISA detects its analyte on a solid surface through an enzyme-linked reagent.

For `CCC(C(=O)Nc1cc(-c2cn3cccnc3n2)ccc1C)c1ccccc1` (stereo not shown) [Compound 37], the “TNF (Median)” value (adult PBMCs, ELISA, median, N=3-5, unit not given (FIG. 6B/7B legends: TNF concentration in ng/ml)) came out at 2.403. Where the note is “class according to TNF % as compared to R848, adult PBMCs”, the Activity class result is “A (high activity—class A: TNF %>15%)”. Also, the “Production of human TNF by PBMCs (in words)” value (human adult PBMCs, ELISA) is “induces robust production of TNF-α”. In addition, the “TNF % (Median)” value (median percentage TNF production as compared to R848, adult PBMCs, N=3-5) was 69.79%.
